# According to patent US6358936B2, “Compounds for the treatment of cancer” (Ardenia Investments, Ltd., priority 1998, dated 2002):
# Where “and” joins values, the source holds several entries; their conditions need not be identical. Equal values may be shown once. Entries after “also recorded” stand apart in the source; their conditions may differ. Read-outs that look alike come from different tables or passages of the source.
# What was measured:
# [1] = system: EAC; conditions: for EAC growth inhibition / number of tumour cells: days 2, 4, 6, day 9
# [2] = system: Ehrlich ascites carcinoma (EAC); experiment: Anti-tumour effect of DXR complexes on Ehrlich ascites carcinoma growth in ICR mice (i.v. days 2, 4, 6; tumour cells counted day 8); type: in vivo; conditions: DXR 3.5 mg/kg; C4 22.5 mg/kg or C5 12 mg/kg
# Description: Random-bred albino mice of line ICR, male and female, from own rearing were used in the study. The room for animal housing was provided with filtered air at 15 changes per hour, a temperature of 19-21° C., relative humidity of 50-60% and regulated light day of 12 hours with change of light and darkness at 6 a.m. and 6 p.m. The mice were kept in transparent polycarbonate cages with a floor area of 600 cm^2 containing softwood sawdust bedding. […] The mice aged 2-2.5 months and having a weight of 19-22 g were randomly distributed in the control and test groups, standardised by mean weights. The control and test groups included 10 and 7 animals correspondingly. The mice of each group were identified by specific ear marks. The cages with animals of each group were identified by cage cards marked with the study date, group number, number and sex of the animals.
# The strain of EAC was propagated in ICR mice by intraperitoneal inoculation of 0.2 ml native ascites fluid or 0.5 ml ascites fluid diluted by saline to 1:1 from one or two animals with intraperitoneally growing EAC on day 7. Ascites fluids contained more 98% of viable tumour cells according to trypan blue exclusion test. For the each study the suspension of EAC cells in sterile saline in concentration of 10^7 viable tumour cells/ml was prepared in aseptic conditions from ascites fluid of mouse bearing of EAC on day 7.
# The mice of each control and experimental groups were inoculated by intraperitoneal injection of 2×10^6 EAC cells in volume of 0.2 ml at day 0. Intravenous injections for the study were carried out in lateral tail vein of mice once every other day, three times (day 2, 4 and 6) following inoculation of EAC cells. The mice of control group were injected by vehicle in volume of 2.5 ml/kg of body weight (50 μl to mouse of 20 g body weight) intravenously (negative control).
# The mice were killed by cervical dislocation two days later after the final treatment with the test complexes on day 8. Ascites fluids were removed, collected, their volumes were recorded, and abdominal cavities were washed by saline 6-7 times and both fluids were pooled. After centrifugation at 1000 r.p.m. for 10 min volumes of tumour cell pellet were also recorded. Number of viable tumour cells was counted by hemocetometer. Means and standard errors for each groups were calculated. Comparison of tumour cell number in control and test groups was carried out using Student's t-test. The influence of tested preparations on EAC growth inhibition was evaluated by the following formula: [formula]
# [3] = system: EAC cells; experiment: Antitumor effect of compound 1 and doxorubicin on EAC in C3H mice (Example 20); type: in vivo; conditions: for Ascites volume / Tumor cell quantity / EAC growth inhibition, % to control: days 2, 4, 6, day 9
# Description: 20-22 g males of C3H mice were used. Control and experimental groups included 7 animals, which were inoculated 5×10^6 EAC cells i.p. in volume 0.2 ml at day 0. […] One group of mice was untreated control. Results of experiment were accounted on ninth day. Mice were killed by cervical dislocation. Ascitic fluids were removed, collected, their volumes were measured, and abdominal cavities were washed by saline solution 6-7 times. Thus obtained fluids were pooled. The number of viable tumor cells was counted by hemocytometer, using trypan blue exclusion test. The mean and the standard mean error was calculated for each group of mice. Comparison of tumor cell number in control and experimental groups was carried out using Student t-test. Influence of tested preparation on EAC growth inhibition was evaluated by: [formula]
# [4] = system: EAC; experiment: Effect of compound 1 with AFP on growth of EAC in C3H mice (Example 21); type: in vivo; conditions: compound 1 1 mg/kg (20 μg/mouse) i.v. ×3, AFP none
# Description: The influence of compound with different amount of AFP on the growth of EAC was studied. The experiments were carried out on inbred C3H mice having initial weight of 20-23 g. The used tumor cell strain was supported by i.p. passages to mice of the same line. At the beginning of the research (day 0) four groups, each of which contained 7 mice, were formed. All of the animals were inoculated by tumour cells in saline solution i.p. (5·10^6 cells in 0,2 ml per a mouse).
# The first group of animals was untreated (negative control). The mice were injected by NMS. […] The animals of third and fourth groups were injected the same dose of compound 1, the protein being added to NMS (2,5 and 5 μg/mouse, accordingly). On the ninth day after inoculation by EAC cells the mice were killed and ascitic fluids were collected and estimated quantitatively. Tumor cells suspensions were prepared and aliquotes were mixed with equal volume of 0,1% trypan blue solution. The quantity of tumor cells were counted with hemocytometer.
# Results of the experiments were evaluated by means of variation statistics method using Student t-test. The values of inhibiting effects of the preparations were represented as percentage in comparison with control.
# [5] = doses corresponding to 1 and 2.5 mg/kg of doxorubicin
# [6] = doxorubicin dose 1 mg/kg i.v. in NMS
# [7] = doxorubicin dose 2.5 mg/kg i.v. in NMS
# [8] = dose 20 μg/mouse i.v. (doxorubicin equivalent, 1 mg/kg)
# [9] = dose 20 μg/mouse i.v. (doxorubicin equivalent, 1 mg/kg), 1 mg/kg
# [10] = dose 50 μg/mouse i.v. (doxorubicin equivalent, 2.5 mg/kg)
# [11] = dose 100 μg/mouse i.v. (doxorubicin equivalent, 5 mg/kg)
Compound,"EAC growth inhibition [1, 6]","number of tumour cells [1, 6]","number of tumour cells [1, 7]",influence of the compound on the anti-tumour action of DXR in the DXR/compound complex [2],"Ascites volume [3, 8]","Tumor cell quantity [3, 8]","EAC growth inhibition, % to control [3, 9]","Ascites volume [3, 10]","Tumor cell quantity [3, 10]","Ascites volume [3, 11]","Tumor cell quantity [3, 11]",also measured
"COc1cccc2c1C(=O)c1c(O)c3c(c(O)c1C2=O)C[C@@](O)(C(=O)CO)C[C@@H]3O[C@H]1C[C@H](NC(=O)\C=C(C)/C=C/C=C(C)/C=C/C2=C(C)CCCC2(C)C)[C@H](O)[C@H](C)O1 (relative stereo) [Compound 2, N-(13-cis-retinoyl)-doxorubicin]",45.3%,533.5±94.23 ×10^6,405.7±120.62 ×10^6,–,–,–,–,–,–,–,–,"antitumor effect in respect to EAC [1, 5]: exceeding the effect of doxorubicin alone; EAC growth inhibition [1, 7]: 58.4%"
"CC1=C(/C=C/C(C)=C/C=C/C(C)=C/C(=O)N[C@@H](Cc2ccc(OP(=O)(O)O)cc2)C(=O)O)C(C)(C)CCC1 (stereo in doubt) [C4, N-(all-trans-retinoyl)-o-phospho-L-tyrosine]",–,–,–,cancelled the anti-tumour action of DXR,–,–,–,–,–,–,–,–
"CCCCC/C=C\C/C=C\C/C=C\C/C=C\CCCC(=O)NCCOP(=O)(O)O [C5, N-arachidonoyl-o-phospho-2-aminoethanol]",–,–,–,canceled the anti-tumour action of DXR; also recorded: cancelled the anti-tumour action of DXR,–,–,–,–,–,–,–,–
"CC/C=C\C/C=C\C/C=C\C/C=C\C/C=C\C/C=C\CCC(=O)N[C@H](C(=O)O)[C@@H](C)OP(=O)(O)O [C11, N-docosahexaenoyl-o-phospho-L-threonine]",–,–,–,canceled the anti-tumour action of DXR,–,–,–,–,–,–,–,–
"COc1cccc2c1C(=O)c1c(O)c3c(c(O)c1C2=O)CC(O)(C(=O)CO)CC3OC1CC(NC(=O)/C=C(C)/C=C/C=C(C)/C=C/C2=C(C)CCCC2(C)C)C(O)C(C)O1 (stereo not drawn) [Compound 1, N-(all-trans-retinoyl)-doxorubicin]",–,–,–,–,3.50 ± 1.30 mL,640.0 ± 78.04 × 10^6,47.3%,2.10 ± 1.70 mL,535.0 ± 167.90 × 10^6,3.30 ± 1.20 mL,571.4 ± 66.96 × 10^6,"EAC growth inhibition, % to control ([3]; dose 20 μg/mouse i.v. (doxorubicin equivalent, 1 mg/kg), listed as compound 1, 1 mg/kg): 47%; EAC growth inhibition, % to control ([3]; dose 50 μg/mouse i.v. (doxorubicin equivalent, 2.5 mg/kg), 2.5 mg/kg): 55.9%; EAC growth inhibition, % to control ([3]; dose 50 μg/mouse i.v. (doxorubicin equivalent, 2.5 mg/kg), listed as compound 1, 2.5 mg/kg): 57% and 56%; EAC growth inhibition, % to control ([3]; dose 100 μg/mouse i.v. (doxorubicin equivalent, 5 mg/kg), 5 mg/kg): 52.9%; EAC growth inhibition, % to control ([3]; dose 100 μg/mouse i.v. (doxorubicin equivalent, 5 mg/kg), listed as compound 1, 5 mg/kg): 53%; anti-tumour effect towards EAC [3, 5]: exerts high anti-tumour effect towards EAC; Ascites volume [4]: 2.0 ± 0.25 mL; Tumor cell quantity [4]: 1185.7 ± 266.2 × 10^6; EAC growth inhibition, % to control ([4]; 1 mg/kg): 45.0%; EAC growth inhibition, % to control ([4]; listed as compound 1, 1 mg/kg): 45%"
"COc1cccc2c1C(=O)c1c(O)c3c(c(O)c1C2=O)C[C@@](O)(C(=O)CO)C[C@@H]3O[C@H]1C[C@H](N)[C@H](O)[C@H](C)O1 [DXR, doxorubicin, reference compound]",34.8%,635.9±122.78 ×10^6,537.4±92.89 ×10^6,–,2.85 ± 1.35 mL,765.8 ± 127.52 × 10^6,36.9%,1.85 ± 1.10 mL,662.1 ± 99.17 × 10^6,0.80 ± 0.60 mL,350.0 ± 108.21 × 10^6,"EAC growth inhibition, % to control [3, 11]: 71.2%"
